Where a name gives a salt, the structure may show the parent alone.

T1 sequence (Q9Y233 whole entry): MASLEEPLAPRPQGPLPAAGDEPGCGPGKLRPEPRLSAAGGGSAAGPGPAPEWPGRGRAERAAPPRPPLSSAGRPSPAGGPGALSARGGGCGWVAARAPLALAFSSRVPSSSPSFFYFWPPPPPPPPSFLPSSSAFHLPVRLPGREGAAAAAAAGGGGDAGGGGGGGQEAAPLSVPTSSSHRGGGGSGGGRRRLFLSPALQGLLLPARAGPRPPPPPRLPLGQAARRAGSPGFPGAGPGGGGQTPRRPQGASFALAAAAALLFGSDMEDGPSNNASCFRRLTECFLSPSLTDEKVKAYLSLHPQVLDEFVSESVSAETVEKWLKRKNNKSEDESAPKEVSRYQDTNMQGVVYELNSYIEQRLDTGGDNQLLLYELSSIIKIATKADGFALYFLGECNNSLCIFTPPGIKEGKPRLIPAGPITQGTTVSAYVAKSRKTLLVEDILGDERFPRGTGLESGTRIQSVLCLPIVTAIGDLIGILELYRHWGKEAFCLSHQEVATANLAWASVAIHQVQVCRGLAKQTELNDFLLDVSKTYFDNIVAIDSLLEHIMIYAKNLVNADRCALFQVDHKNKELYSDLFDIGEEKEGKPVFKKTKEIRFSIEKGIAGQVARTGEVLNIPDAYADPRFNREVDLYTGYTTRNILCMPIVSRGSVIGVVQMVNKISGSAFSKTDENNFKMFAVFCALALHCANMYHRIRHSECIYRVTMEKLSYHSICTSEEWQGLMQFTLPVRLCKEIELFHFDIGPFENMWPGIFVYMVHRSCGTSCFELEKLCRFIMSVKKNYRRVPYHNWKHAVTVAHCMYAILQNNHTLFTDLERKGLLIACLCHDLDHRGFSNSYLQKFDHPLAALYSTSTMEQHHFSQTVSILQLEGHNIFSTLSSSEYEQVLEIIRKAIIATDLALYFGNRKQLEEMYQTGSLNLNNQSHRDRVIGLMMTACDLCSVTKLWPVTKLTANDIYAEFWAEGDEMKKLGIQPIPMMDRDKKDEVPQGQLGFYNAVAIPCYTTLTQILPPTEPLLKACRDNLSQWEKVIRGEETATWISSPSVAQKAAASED

This assay concerns the target T1, PDE10A (human) (Homo sapiens, UniProt Q9Y233).
T1 construct: purchased BPS Bioscience
The experiment in a line: Measurement of PDE activity (HTRF cAMP kit), human PDE10A. The class given is biochemical. As to conditions: PDE enzymatic reaction, substrate 20 nM for PDE10, 60 minutes at 29 C. The protocol: The recombinant PDE proteins are used in in vitro enzymatic reaction for measurement of PDE activity. These recombinant proteins, including PDE10A (human, rat and mouse PDE10) and isoforms of PDEs 1, 3, 4, and 5, were purchased from commercial vendor BPS Bioscience. The enzymatic activity of PDEs was determined by cAMP measurement kit from CisBio (IBA) using HTRF technology.
The PDE enzymatic reaction was carried out in assay buffer (20 mM Tris-HCl pH7.5, 10 mM MgCl2, 0.1% bovine serum albumin) containing enzyme and substrate. The PDE enzymes concentration ranged from 10 pM-250 pM, depending on each enzyme's specific activity. The substrate cyclic nucleotide (cAMP or cGMP) concentration used in the assay was 20 nM for PDE10, and 100 nM for other PDEs. The inhibitory effect of compound was determined by incubating various concentration of inhibitor in the enzymatic assay. Typically, compound was serial diluted in DMSO then further diluted in assay buffer. Next, the compound at varying concentration was mixed with PDE enzyme. The reaction was initiated by addition of cyclic nucleotide substrate, and incubated for 60 minutes at 29 C. The reaction was stopped by addition of lysis buffer from assay kit. The cAMP-d2 and anti-cAMP cryptate in the lysis buffer detected the level of cAMP left from the PDE hydrolysis reaction. The PDE activity is reversely correlated with the amount of cAMP left in the reaction and can be converted to the percent activity of an uninhibited control (100%). Thus, IC50 value of inhibitor can be obtained by plotting inhibitor concentration against PDE activity at that concentration.
Broadly, the IC50 is the midpoint of a concentration-inhibition curve. High values mean lower potency, low ones higher potency. `CCOC(=O)C1CCN(c2ccnc3c2C(=O)N(CCc2ccc4ccccc4n2)C3)CC1` [Example 319, 1-[5-Oxo-6-(2-quinolin-2-yl-ethyl)-6,7-dihydro-5H-pyrrolo[3,4-b]pyridin-4-yl]-piperidine-4-carboxylic acid ethyl ester] came in with an IC50 of 0.2 to 0.5 µM.

The molecule `O=C1c2c(-c3ccc(F)cc3)ccc(F)c2CN1CCc1ccc2ccccc2n1` [compound 444, 4-Fluoro-7-(4-fluorophenyl)-2-[2-(2-quinolyl)ethyl]isoindolin-1-one] displayed an IC50 of less than 0.1 µM.

Molecule `CN1CCN(S(=O)(=O)c2cccc3c2CN(c2cccc4c2CN(CCc2ccc5ccccc5n2)C4=O)CC3)CC1` [Example 321, 4-[8-(4-Methyl-piperazine-1-sulfonyl)-3,4-dihydro-1H-isoquinolin-2-yl]-2-(2-quinolin-2-yl-ethyl)-2,3-dihydro-isoindol-1-one] gave an IC50 of 0.2 to 0.5 µM.

In turn, `O=C1c2c(N3CCOCC3)ccc(F)c2CN1CCc1ccc2ccccc2n1` [compound 440, 4-Fluoro-7-morpholino-2-[2-(2-quinolyl)ethyl]isoindolin-1-one] gave an IC50 of less than 0.1 µM.

Take `O=C1c2cccc(-c3ccsc3)c2CN1CCc1ccc2ccccc2n1` [Example 345, 2-(2-Quinolin-2-yl-ethyl)-4-thiophen-3-yl-2,3-dihydro-isoindol-1-one]: the IC50 was less than 0.1 µM.

`O=C1c2c(cccc2-c2ccncc2Cl)CN1CCc1ccc2ccccc2n1` [Example 170, 7-(3-Chloro-pyridin-4-yl)-2-(2-quinolin-2-yl-ethyl)-2,3-dihydro-isoindol-1-one trifluoroacetate] showed a 50% inhibitory concentration (IC50) of less than 0.1 µM.

Consider `O=C1c2cccc(-c3cccnc3)c2C(=O)N1CCc1ccc2ccccc2n1` [Example 271, 4-Pyridin-3-yl-2-(2-quinolin-2-yl-ethyl)-isoindole-1,3-dione], for which the IC50 is less than 0.1 µM.

In the case of `O=C1c2c(cccc2-c2ccc3[nH]ncc3c2)CN1CCc1ccc2ccccc2n1` [Example 93, 7-(1H-Indazol-5-yl)-2-(2-quinolin-2-yl-ethyl)-2,3-dihydro-isoindol-1-one], the IC50 is 0.2 to 0.5 µM.

Regarding `O=C1c2c(C3=COCC3)ccnc2CN1CCc1ccc2ccccc2n1` [Example 266, 4-(4,5-Dihydro-furan-3-yl)-6-(2-quinolin-2-yl-ethyl)-6,7-dihydro-pyrrolo[3,4-b]pyridin-5-one], the IC50 was less than 0.1 µM.

Molecule `O=C1c2c(cccc2-c2ccc3cn[nH]c3c2)CN1CCc1ccc2ccccc2n1` [Example 97, 7-(1H-Indazol-6-yl)-2-(2-quinolin-2-yl-ethyl)-2,3-dihydro-isoindol-1-one] displayed an IC50 of less than 0.1 µM.

`O=C1c2c(cccc2OCc2cccnc2)CN1CCc1ccc2ccccc2n1` [Example 127, 7-(Pyridin-3-ylmethoxy)-2-(2-quinolin-2-yl-ethyl)-2,3-dihydro-isoindol-1-one] returned an IC50 of 0.1 to 0.2 µM.

The molecule `O=C1c2c(-c3ccncc3)ccnc2CN1CCc1nc(C2CC2)cs1` [compound 517, 6-[2-(4-Cyclopropylthiazol-2-yl)ethyl]-4-(4-pyridyl)-7H-pyrrolo[3,4-b]pyridin-5-one] had an IC50 of less than 0.1 µM.

On to `Cc1cc(-c2cccc3c2C(=O)N(CCc2ccc4ccccc4n2)C3)ccn1` [Example 65, 7-(2-Methyl-pyridin-4-yl)-2-(2-quinolin-2-yl-ethyl)-2,3-dihydro-isoindol-1-one], for which the IC50 is less than 0.1 µM.

In turn, `O=c1c2c(-c3ccncc3)cccc2on1CCc1ccc2ccccc2n1` [Example 18, 4-Pyridin-4-yl-2-(2-quinolin-2-yl-ethyl)-benzo[d]isoxazol-3-one] yielded an IC50 of less than 0.1 µM.

For the molecule `O=C1c2c(cccc2-c2cn[nH]c2)CN1CCc1ccc2ccccc2n1` [Example 78, 7-(1H-Pyrazol-4-yl)-2-(2-quinolin-2-yl-ethyl)-2,3-dihydro-isoindol-1-one], the IC50 is less than 0.1 µM.

`O=C1c2c(cccc2-c2cc[nH]n2)CN1CCc1ccc2ccccc2n1` [Example 53, 7-(1H-Pyrazol-3-yl)-2-(2-quinolin-2-yl-ethyl)-2,3-dihydro-isoindol-1-one] yielded a half-inhibitory concentration (IC50) of 0.1 to 0.2 µM.

For `N#Cc1ccc(-c2cccc3c2C(=O)N(CCc2ccc4ccccc4n2)C3)s1` [Example 281, 5-[3-oxo-2-(2-quinolin-2-yl-ethyl)-2,3-dihydro-1H-isoindol-4-yl]-thiophene-2-carbonitrile], the IC50 was less than 0.1 µM.

In turn, `Cn1cc(-c2cccc3c2C(=O)N(CCc2ccc4ccccc4n2)C3)cn1` [Example 70, 7-(1-Methyl-1H-pyrazol-4-yl)-2-(2-quinolin-2-yl-ethyl)-2,3-dihydro-isoindol-1-one] gave an IC50 of 0.1 to 0.2 µM.

The molecule `CCn1cc(-c2ccnc3c2C(=O)N(CCc2ccc4ccccc4n2)C3)cn1` [Example 333, 4-(1-Ethyl-1H-pyrazol-4-yl)-6-(2-quinolin-2-yl-ethyl)-6,7-dihydro-pyrrolo[3,4-b]pyridin-5-one] gave an IC50 of 0.1 to 0.2 µM.

For `O=C1c2c(-c3ccncc3)ccc(OCF)c2CN1CCc1ccc2ccccc2n1` [Example 299, 4-Fluoromethoxy-7-pyridin-4-yl-2-(2-quinolin-2-yl-ethyl)-2,3-dihydro-isoindol-1-one], the IC50 is less than 0.1 µM.

Take `O=C1c2cccc(-c3cn[nH]c3)c2CN1CCc1ccc2ccccc2n1` [Example 225, 4-(1H-Pyrazol-4-yl)-2-(2-quinolin-2-yl-ethyl)-2,3-dihydro-isoindol-1-one]: the IC50 was less than 0.1 µM.

Molecule `Cc1noc(C)c1-c1cccc2c1CN(CCc1ccc3ccccc3n1)C2=O` [Example 349, 4-(3,5-Dimethyl-isoxazol-4-yl)-2-(2-quinolin-2-yl-ethyl)-2,3-dihydro-isoindol-1-one] registered a half-maximal inhibitory concentration (IC50) of 0.2 to 0.5 µM.

As for `O=C1c2c(cccc2-c2ccncc2F)CN1CCc1ccc2ccccc2n1` [Example 173, 7-(3-Fluoro-pyridin-4-yl)-2-(2-quinolin-2-yl-ethyl)-2,3-dihydro-isoindol-1-one], the IC50 is less than 0.1 µM.

In the case of `O=C1c2c(cccc2-c2ccc(F)cc2)CN1CCc1ccc2ccccc2n1` [Example 22, 7-(4-Fluoro-phenyl)-2-(2-quinolin-2-yl-ethyl)-2,3-dihydro-isoindol-1-one], the IC50 is less than 0.1 µM.

Regarding `Cn1c(CCN2Cc3cccc(-c4ccc(F)cc4)c3C2=O)nc2ccccc21` [Example 211, 7-(4-Fluoro-phenyl)-2-[2-(1-methyl-1H-benzoimidazol-2-yl)-ethyl]-2,3-dihydro-isoindol-1-one trifluoroacetate], the half-maximal inhibitory concentration (IC50) was 0.2 to 0.5 µM.

In turn, `Cc1cc(-c2cccc3c2CN(CCc2ccc4ccccc4n2)C3=O)n(C)n1` [Example 348, 4-(2,5-Dimethyl-2H-pyrazol-3-yl)-2-(2-quinolin-2-yl-ethyl)-2,3-dihydro-isoindol-1-one] registered an IC50 of 0.1 to 0.2 µM.

`COc1ccc(-c2cccc3c2CN(CCc2ccc4ccccc4n2)C3=O)cc1` [Example 203, 4-(4-Methoxy-phenyl)-2-(2-quinolin-2-yl-ethyl)-2,3-dihydro-isoindol-1-one trifluoroacetate]: the IC50 is less than 0.1 µM.

In turn, `Cn1nccc1-c1ccc(F)c2c1C(=O)N(CCc1ccc3ccccc3n1)C2` [compound 439, 4-Fluoro-7-(2-methylpyrazol-3-yl)-2-[2-(2-quinolyl)ethyl]isoindolin-1-one] registered an IC50 of less than 0.1 µM.

`CN(C)c1ncc(-c2cccc3c2CN(CCc2ccc4ccccc4n2)C3=O)cn1` [Example 341, 4-(2-Dimethylamino-pyrimidin-5-yl)-2-(2-quinolin-2-yl-ethyl)-2,3-dihydro-isoindol-1-one] yielded an IC50 of 0.1 to 0.2 µM.

Values taken from patent US9938269B2, “Inhibitor compounds of phosphodiesterase type 10A” (ABBVIE INC., priority 2011, dated 2018).
